Converted amounts (≈) assume the structure as drawn. “And” between values parts separate entries of the source, which are not always exact repeats. Identical values can stand only once. Each block holds one molecule with its values, some of them ahead of it.
Key:
Assay in all cases: ≥ marks a high value that may be exact or a test limit, other limits are often not marked, values filed in µg/mL are converted to µM
[1] = test system: Escherichia coli K99
[2] = test system: Escherichia coli 078
[3] = test system: Salmonella enterica subsp. enterica serovar Pullorum ATCC 7913
[4] = test system: Candida tropicalis CGMCC 2.1975
[5] = test system: Escherichia coli K88
[6] = test system: Salmonella enterica subsp. enterica serovar Typhimurium ATCC 14028
[7] = test system: Escherichia coli UB1005
[8] = test system: Staphylococcus aureus ATCC 25923
[9] = test system: Staphylococcus aureus ATCC 43300
[10] = test system: Candida parapsilosis CGMCC 2.3989
[11] = test system: Pseudomonas aeruginosa ATCC 27853
[12] = test system: Staphylococcus epidermidis ATCC 12228
[13] = test system: Salmonella enterica subsp. enterica serovar Typhimurium C77-31
[14] = test system: Candida tropicalis ATCC 13803
[15] = test system: Staphylococcus epidermidis 1457
[16] = test system: Pseudomonas aeruginosa PAO1
[17] = test system: Staphylococcus aureus Newman
[18] = test system: Klebsiella pneumoniae ATCC 13883
[19] = test system: Staphylococcus aureus UAMS-1
[20] = test system: Staphylococcus aureus USA 300
[21] = test system: Escherichia coli ATCC 25922
[22] = test system: Bacillus subtilis 168
[23] = test system: Staphylococcus aureus MU50
[24] = test system: Candida glabrata ATCC 2001
[25] = test system: Candida albicans ATCC 10231
[26] = test system: Staphylococcus aureus USA 200
[27] = test system: Staphylococcus aureus USA 400
[28] = test system: Lacticaseibacillus rhamnosus 8014
[29] = test system: Streptococcus agalactiae BNCC 185941
[30] = test system: Escherichia coli O157:H7 CICC 21530
[31] = test system: Salmonella enterica subsp. enterica serovar Choleraesuis CVCC 503
[32] = test system: Staphylococcus aureus ATCC 29213
[33] = test system: Lacticaseibacillus rhamnosus 1.0936
[34] = test system: Lacticaseibacillus rhamnosus 1.0911
[35] = test system: Lacticaseibacillus rhamnosus 1.9021
[36] = test system: Salmonella enterica subsp. enterica serovar Pullorum C79-13
[37] = test system: Legionella pneumophila Lens
[38] = test system: Micrococcus luteus
[39] = test system: Vibrio harveyi
[40] = test system: Vibrio alginolyticus
[41] = test system: Vibrio parahaemolyticus
[42] = test system: Vibrio campbellii
[43] = test system: Staphylococcus epidermidis
[44] = test system: Escherichia coli

Structure (SMILES): CC[C@H](C)[C@H](NC(=O)[C@H](Cc1c[nH]c2ccccc12)NC(=O)[C@H](CCCN=C(N)N)NC(=O)[C@H](CC(C)C)NC(=O)[C@@H](NC(=O)[C@H](CCCN=C(N)N)NC(=O)[C@H](CCCN=C(N)N)NC(=O)[C@H](C)NC(=O)[C@H](C)N)[C@@H](C)CC)C(=O)N[C@@H](Cc1ccccc1)C(=O)N[C@@H](CCCN=C(N)N)C(N)=O [AARRILRWIFR]
MIC [1]: 4 µM (≈ 5.83 µg/mL)
MIC [2]: 4 µM (≈ 5.83 µg/mL)
MIC [3]: 4 µM (≈ 5.83 µg/mL)
MIC [4]: 4 µM (≈ 5.83 µg/mL)
MIC [5]: 4 µM (≈ 5.83 µg/mL)
MIC [6]: 4 µM (≈ 5.83 µg/mL)
MIC [7]: 4 µM (≈ 5.83 µg/mL)
MIC [8]: 8 µM (≈ 11.7 µg/mL)
MIC [9]: 8 µM (≈ 11.7 µg/mL)
MIC [10]: 8 µM (≈ 11.7 µg/mL)
MIC [11]: 8 µM (≈ 11.7 µg/mL)
MIC [12]: 4 µM (≈ 5.83 µg/mL)
MIC [13]: 4 µM (≈ 5.83 µg/mL)

Structure (SMILES): CC[C@H](C)[C@H](NC(=O)[C@H](Cc1ccccc1)NC(=O)[C@H](CC(=O)O)NC(=O)[C@H](C)NC(=O)[C@@H](N)CCSC)C(=O)N[C@@H](C)C(=O)N[C@@H](CCCCN)C(=O)N[C@H](C(=O)N[C@H](C(=O)N[C@@H](CCC(=O)O)C(=O)N[C@H](C(=O)N[C@H](C(=O)N[C@@H](CCCCN)C(=O)NCC(=O)N[C@@H](CC(C)C)C(=O)N[C@H](C(=O)N[C@@H](CC(=O)O)C(=O)N[C@@H](CCC(N)=O)C(=O)N[C@@H](Cc1ccccc1)C(=O)N[C@H](C(=O)N[C@@H](CCC(N)=O)C(=O)N[C@@H](CCCCN)C(=O)O)[C@@H](C)O)[C@@H](C)CC)C(C)C)[C@@H](C)CC)C(C)C)[C@@H](C)CC [MADFIAKIVEIVKGLIDQFTQK]
MIC [37]: 1.25 µM (≈ 3.14 µg/mL)

The next lines start with results.

MIC [14]: 8.8 µM (≈ 12.3 µg/mL)
MIC [15]: 12.5 µM (≈ 17.5 µg/mL)
MIC [16]: > 50 µM
MIC [17]: 12.5 µM (≈ 17.5 µg/mL)
MIC [18]: ≥ 50 µM
MIC [19]: 25 µM (≈ 34.9 µg/mL)
MIC [20]: 12.5 µM (≈ 17.5 µg/mL)
MIC [21]: > 50 µM
MIC [22]: ≥ 35.4 µM
MIC [23]: 12.5 µM (≈ 17.5 µg/mL)
MIC [24]: ≥ 50 µM
MIC [25]: 50 µM (≈ 69.8 µg/mL)
MIC [26]: 25 µM (≈ 34.9 µg/mL)
MIC [27]: 12.5 µM (≈ 17.5 µg/mL)
Structure (SMILES): CC[C@H](C)[C@H](NC(=O)CNC(=O)[C@H](CO)NC(=O)[C@@H](NC(=O)[C@H](CC(C)C)NC(=O)[C@H](CCCN=C(N)N)NC(=O)CNC(=O)[C@@H](NC(=O)[C@@H](NC(=O)[C@@H]1CCCN1C(=O)[C@H](CC(C)C)NC(=O)[C@@H](N)Cc1ccccc1)[C@@H](C)CC)C(C)C)[C@@H](C)CC)C(=O)N[C@@H](CC(C)C)C(N)=O [FLPIVGRLISGIL]

MIC [28]: 16 µM (≈ 20.5 µg/mL)
MIC [16]: 16 µM (≈ 20.5 µg/mL)
MIC [29]: ≥ 128 µM
MIC [30]: 4 µM (≈ 5.13 µg/mL)
MIC [5]: 2 µM (≈ 2.57 µg/mL)
MIC [21]: 8 µM and 16 µM
MIC [6]: 16 µM (≈ 20.5 µg/mL)
MIC [32]: 16 µM (≈ 20.5 µg/mL)
MIC [33]: ≥ 64 µM
MIC [9]: 16 µM (≈ 20.5 µg/mL)
MIC [11]: 4 µM (≈ 5.13 µg/mL)
MIC [12]: 64 µM (≈ 82.1 µg/mL)
MIC [34]: 16 µM (≈ 20.5 µg/mL)
MIC [35]: ≥ 32 µM
MIC [36]: 8 µM (≈ 10.3 µg/mL)
Structure (SMILES): CC[C@H](C)[C@H](NC(=O)CNC(=O)[C@@H](NC(=O)[C@H](Cc1c[nH]c2ccccc12)NC(=O)[C@@H](NC(=O)CNC(=O)[C@@H](NC(=O)[C@H](CCCCN)NC(=O)[C@@H](N)CCCCN)[C@@H](C)CC)[C@@H](C)CC)[C@@H](C)CC)C(=O)N[C@@H](CCCCN)C(=O)N[C@@H](CCCCN)C(N)=O [KKIGIWIGIKK]
MIC [31]: 8 µM (≈ 10.3 µg/mL)

MIC [38]: ≥ 64 µM
MIC [39]: ≥ 64 µM
MIC [40]: ≥ 64 µM
MIC [42]: ≥ 64 µM
MIC [43]: ≥ 64 µM
MIC [44]: > 64 µM
Structure (SMILES): CC[C@H](C)[C@H](NC(=O)[C@H](Cc1ccccc1)NC(=O)[C@H](Cc1ccc(O)cc1)NC(=O)[C@@H]1CCCN1C(=O)[C@H](CCCN=C(N)N)NC(=O)[C@@H](NC(=O)[C@H](CO)NC(=O)[C@H](Cc1ccc(O)cc1)NC(=O)[C@H](CO)NC(=O)[C@H](CS)NC(=O)[C@H](Cc1ccc(O)cc1)NC(C)=O)[C@@H](C)O)C(=O)N[C@@H](CCCN=C(N)N)C(=O)N[C@@H](Cc1c[nH]c2ccccc12)C(=O)N[C@@H](CCC(N)=O)C(=O)N[C@@H](CC(C)C)C(=O)N[C@@H](CCCCN)C(=O)N[C@@H](Cc1ccccc1)C(=O)N[C@@H](CCCCN)C(=O)N[C@H](C(=O)N[C@@H](CCCCN)C(=O)N[C@H](C(=O)N[C@@H](Cc1c[nH]c2ccccc12)C(=O)N[C@@H](CS)C(=O)N1CCC[C@H]1C(N)=O)[C@@H](C)CC)[C@@H](C)O [YCSYSTRPYFIRWQLKFKTKIWCP]
MIC [41]: ≥ 64 µM

Reference: DBAASP
